# From patent publication US20050245529A1 (Boehringer Ingelheim International GmbH, priority 2004, published 2005)
# Molecular target: T1, hMCH-1R (Homo sapiens, UniProt Q99705)
# T1 construct: expressed in transfected cells; host or cells: CHO/Galpha 16 cells, stably transfected; membranes used
# Test: MCH-1 receptor binding test
# Details: 125I-MCH binding, membranes from CHO/Galpha 16 cells stably transfected with human hMCH-1R
# Experimental: Membranes from CHO/Galpha 16 cells stably transfected with human hMCH-1R are resuspended using a syringe (needle 0.6×25 mm) and diluted in test buffer (50 mM HEPES, 10 mM MgCl2, 2 mM EGTA, pH 7.00; 0.1% bovine serum albumin (protease-free), 0.021% bacitracin, 1 μg/mL aprotinin, 1 μg/mL leupeptin and 1 μM phosphoramidone) to a concentration of 5 to 15 μg/mL. […] After the incubation the reaction is filtered using a cell harvester through 0.5% PEI treated fiberglass filters (GF/B, Unifilter Packard). The membrane-bound radioactivity retained on the filter is then determined after the addition of scintillator substance (Packard Microscint 20) in a measuring device (TopCount of Packard). […] The analysis of the concentration binding curve is carried out on the assumption of one receptor binding site.
# T1 sequence (Q99705 whole entry): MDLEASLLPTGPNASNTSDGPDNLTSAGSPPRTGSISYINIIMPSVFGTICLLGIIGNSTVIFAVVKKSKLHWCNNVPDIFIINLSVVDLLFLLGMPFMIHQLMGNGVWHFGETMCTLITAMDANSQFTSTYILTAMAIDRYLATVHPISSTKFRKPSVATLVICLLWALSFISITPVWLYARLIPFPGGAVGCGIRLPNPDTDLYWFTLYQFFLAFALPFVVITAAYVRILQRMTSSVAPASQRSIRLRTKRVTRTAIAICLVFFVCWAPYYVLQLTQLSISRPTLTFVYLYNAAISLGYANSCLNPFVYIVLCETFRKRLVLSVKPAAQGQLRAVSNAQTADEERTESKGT
row,IC50 [nM],SMILES
1,25,"CCCN(CC1CC1)[C@H](C)/C=C(\C)c1ccc(C#Cc2ccc(-c3ccc(Cl)cc3)cn2)cc1 [Example 15.5, ((E)-(R)-3-{4-[5-(4-chlorophenyl)pyridin-2-ylethynyl]phenyl}-1-methylbut-2-enyl)cyclopropylmethylpropylamine]"
2,3.7,"NC(=O)C1CCN([C@H]2CCN(c3ccc(C#Cc4ccc(-c5ccc(Cl)cc5)cn4)cn3)C2)CC1 [Example 6.3, (S)-1-(1-{5-[5-(4-chlorophenyl)pyridin-2-ylethynyl]pyridin-2-yl}pyrrolidin-3-yl)piperidin-4-carboxylic acid amide]"
